Results: article PMC8085013, “Mixture interactions at mammalian olfactory receptors are dependent on the cellular environment” (Scientific Reports, 2021)

Key:
[1] = tested on: endogenous adrenergic receptors; assay: Isoproterenol saturating control in the cAMP/CNGCmut calcium influx assay in HEK293 cells; assay type: cell-based; conditions: 10 µM, applied for 5-min
Experimental: Calcium imaging was performed as described previously. HEK293 cells were incubated (30 min/37 °C) in a DMEM containing 6–8 µM Fluo-4/AM (Invitrogen) or Fluo-2/AM (TefLabs) containing 0.04% Pluronic F127. Activity of cells expressing untagged ORs from the bicistronic pTR plasmid was reported by expressed GCaMP3. Odorant solutions were applied sequentially to the cells for 5 s with a 3 min interval between each application to allow recovery from desensitization resulting from previous application of odorants. In the case of prolonged 10-min stimulation, the cells were allowed to recover for at least 10 min before adding a binary mix or isoproterenol alone, activating endogenous production of cAMP. Cells growing either on a 35-mm plastic dish or on a round poly-L-lysine coated cover glass were transferred to the stage of an inverted microscope (Axiovert 200, Zeiss) equipped with a 10x/0.5NA Fluar objective. Odorants were applied to the cells as a 5-s long pulse using a computer-controlled fast perfusion system (RSC-200, BioLogic, France) ensuring precise delivery of the stimulus with a minimal time lag. The perfusion system was controlled by Clampex 9.2 or 10.2 software (Molecular Devices). In some experiments, cells were pre-incubated with a putative antagonist for 30-s before applying a 5-s pulse of agonist. […]

[2] = target: T1, mouse Olfr73 (Mus musculus, UniProt Q920P2); parameters: method as in PMID 25149566; conditions: starred cells, previously published in vitro work under the same conditions ref 25; cited from earlier work
T1 sequence (Q920P2 1-313): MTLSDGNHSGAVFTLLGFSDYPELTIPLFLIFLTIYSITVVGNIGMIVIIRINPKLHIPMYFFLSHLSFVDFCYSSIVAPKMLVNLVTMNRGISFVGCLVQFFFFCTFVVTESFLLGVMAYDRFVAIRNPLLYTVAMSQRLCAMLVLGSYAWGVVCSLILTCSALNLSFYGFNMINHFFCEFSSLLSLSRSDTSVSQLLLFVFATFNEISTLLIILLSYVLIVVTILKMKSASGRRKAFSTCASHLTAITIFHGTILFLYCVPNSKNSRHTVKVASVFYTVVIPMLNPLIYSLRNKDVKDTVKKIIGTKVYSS

[3] = target: T1, mouse Olfr73; assay: GCaMP3 calcium imaging of rat OSNs ectopically expressing Olfr73 (rAAV2/5), 5-s odorant pulse; assay type: cell-based; conditions: 5-s pulse
[4] = target: T1, mouse Olfr73; assay: GCaMP3 calcium imaging of mouse OSNs ectopically expressing Olfr73 (rAAV2/5), 5-s odorant pulse; assay type: cell-based; conditions: 5-s pulse
[5] = target: T1, mouse Olfr73; parameters: method as in PMID 25149566; conditions: starred cells, previously published in vitro work under the same conditions ref 25; cited from earlier work; remark: listed apart in the source
[6] = target: T2, Olfr599 (Mus musculus, UniProt Q8VG01); assay: GCaMP3 calcium imaging of mouse OSNs ectopically expressing Olfr599 (rAAV2/5); assay type: cell-based; conditions: each at 100 µM, 5-s pulse
T2 sequence (Q8VG01 entry or part of it): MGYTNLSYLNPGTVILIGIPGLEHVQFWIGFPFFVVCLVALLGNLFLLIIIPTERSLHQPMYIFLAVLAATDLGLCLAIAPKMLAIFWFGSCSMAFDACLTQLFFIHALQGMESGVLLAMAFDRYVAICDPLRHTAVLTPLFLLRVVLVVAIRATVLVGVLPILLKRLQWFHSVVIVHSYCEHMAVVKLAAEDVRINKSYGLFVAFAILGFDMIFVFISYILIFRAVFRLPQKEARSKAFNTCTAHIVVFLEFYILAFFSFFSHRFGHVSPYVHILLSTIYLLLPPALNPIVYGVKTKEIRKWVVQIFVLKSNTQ
Experimental: Animals 4–6 weeks of age were used for experiments 7–21 days post-inoculation with rAAV2/5 encoding OR-furin2A-GCaMP3. Calcium imaging was performed as detailed previously. Tissue was prepared and mounted with the apical surface facing up. The chamber was transferred to the stage of an upright microscope (Zeiss Axioskop-2F) equipped with a 40×/0.75NA long distance water-immersion objective lens. Experimental solutions were applied for a duration of 5 s directly to the field of view through a 100 µm diameter needle made of fused silica and connected to a 9-channel Teflon manifold. Solution application was controlled by electronic valves (VC-6, Warner Instruments). The calcium response is presented as an increase of GCaMP3 fluorescence originating from the knob and underlying dendrite. The tissue was illuminated using a standard eGFP filter cube BP490 nm/ 535 nm (Omega Optical, USA) and the emitted light was collected at 530 nm (BP 530/20 nm, Omega Optical, USA) by a 12-bit cooled CCD camera (ORCA R2, Hamamatsu, Japan). […] Before processing, fluorescence intensity was corrected for the background. Each knob was assigned a region of interest (ROI) and changes in fluorescence intensity within each ROI were analyzed and expressed as the peak fractional change in fluorescent light intensity (F-Fo)/Fo where Fo is the baseline fluorescence before application of experimental solutions.

[7] = target: T2, Olfr599; assay: Calcium imaging of HEK293 cells expressing Olfr599; assay type: cell-based
Experimental: Heterologous expression of mouse ORs was based on the previously published method. HEK293 (ATCC CRL-1537) or HEK293T (ATCC CRL-3216) cells were grown in a high glucose […] (DMEM) supplemented with 10% FBS, penicillin and streptomycin, and 2 mM L-glutamine and maintained at 37 °C (5% CO2). A rhodopsin-tagged mouse olfactory receptor Olfr73 and Olfr599 (provided by Dr. Matsunami, Duke University) was co-expressed with RTP1s, a short version of the Receptor Transporting Protein 1 ensuring proper surface trafficking of the receptor (provided by Dr. Touhara, University of Tokyo). To reconstitute different G-protein coupled signaling pathways, one of the three G-proteins was co-expressed along with the OR and RTP1s, promiscuous mouse Gα15 (Thermo Scientific Open Biosystems), heterotrimeric Gαq11/ß1/γ13, both coupled to endogenous PLC/calcium release, and human Gαolf (Missouri S&T cDNA Resource Center). To assay activity-dependent accumulation of cAMP generated by activation of the Gs/Golf pathway, the cells were additionally co-transfected with a mutated A2 subunit of the rat olfactory cyclic nucleotide gated channel (CNGCmut). Two mutations C460W and E583M ensured high sensitivity and selectivity of the channel to cAMP (a gift from Dr. Rich, University of South Alabama). Transfections were performed using Calfectin (SignaGen). […]

Compound: CC(C)NCC(O)c1ccc(O)c(O)c1 (stereo not shown) [Isoproterenol]
- cAMP-dependent response [1]: robust sustained response

Compound: C=C(C)[C@@H]1CCC2=CC(=O)C[C@@H](C)[C@]2(C)C1 [Nootkatone, nootkatone]
- Agonism/antagonism, HEK293 short odor Ca2+ G15 [2]: Inactive*
- Agonism/antagonism, OSN Ca2+ Rat ([3]; strong agonist 100 µM, putative antagonist 1 mM): Agonist
- Response to ligand applied alone ([3]; rat Olfr73-OSNs): lower than that to eugenol
- Agonism/antagonism, OSN Ca2+ Mouse ([4]; strong agonist 100 µM, putative antagonist 1 mM, single or as pair): Agonist
- Response relative to the response to eugenol ([4]; ligand 1 mM, Olfr73-OSNs): 50%
- Response to ligand applied alone ([4]; mouse Olfr73-OSNs): weak agonist
- Agonism/antagonism, HEK293 short odor Ca2+ Gs/olf [5]: Inactive*

Compound: CCCCCCCC(=O)O [Octanoic acid]
- Response to ligand applied alone [6]: evoked reliable neuronal responses
- Response to ligand applied alone ([7]; HEK293, Olfr599 with Gαq11/ß1/γ13, 100 µM): robust activation
- EC50 ([7]; HEK293 cells, Olfr599): 70 µM

Compound: isoeugenol
- Agonism/antagonism, HEK293 short odor Ca2+ G15 [2]: Agonist*
- Agonism/antagonism, HEK293 short odor Ca2+ Gs/olf [5]: Agonist*
